Test results published in patent US20210308089A1, “METHODS OF TREATING AND/OR PREVENTING VIRAL INFECTIONS AND/OR DISEASES CAUSED BY VIRUSES IN A SUBJECT IN NEED THEREOF” (priority 2020, published 2021).

Test system: patients of the REDUCE-IT and earlier EPA placebo-controlled trials
Format: in vivo, human
Settings: R-I

Compound: CC/C=C\C/C=C\C/C=C\C/C=C\C/C=C\CCCC(=O)OCC [icosapent ethyl, eicosapentaenoic acid ethyl ester]
- AR: ALP high (Day 120): 3.2%
- AR: ALP high (Day 360): 3.4%
- AR: ALP high (Day 720): 4.4%
- AR: ALP high (Day 1080): 4.4%
- AR: ALP high (Day 1440): 4.2%
- AR: ALP high (Day 1800): 4.3%
- AR: ALP shift: normal to high (Day 120): 1.5%
- AR: ALP shift: normal to high (Day 360): 1.8%
- AR: ALP shift: normal to high (Day 720): 3.0%
- AR: ALP shift: normal to high (Day 1080): 3.3%
- AR: ALP shift: normal to high (Day 1440): 3.2%
- AR: ALP shift: normal to high (Day 1800): 3.3%
- AR: ALP shift: normal to low (Day 120): 0.3%
- AR: ALP shift: normal to low (Day 360): 0.3%
- AR: ALP shift: normal to low (Day 720): 0.4%
- AR: ALP shift: normal to low (Day 1080): 0.4%
- AR: ALP shift: normal to low (Day 1440): 0.6%
- AR: Albumin high (Day 120): 1.0%
- AR: Albumin high (Day 360): 1.2%
- AR: Albumin high (Day 720): 2.1%
- AR: Albumin high (Day 1080): 1.9%
- AR: Albumin high (Day 1440): 1.8%
- AR: Albumin shift: normal to high (Day 120): 0.8%
- AR: Albumin shift: normal to high (Day 360): 0.9%
- AR: Albumin shift: normal to high (Day 720): 1.9%
- AR: Albumin shift: normal to high (Day 1080): 1.8%
- AR: Albumin shift: normal to high (Day 1440): 1.6%
- AR: Bilirubin >1x ULN to 2x ULN: 3.3%
- AR: Bilirubin >2x ULN to 3x ULN: 0.2%
- AR: Bilirubin high (Day 120): 1.9%
- AR: Bilirubin high (Day 360): 1.9%
- AR: Bilirubin high (Day 720): 2.0%
- AR: Bilirubin high (Day 1080): 2.4%
- AR: Bilirubin high (Day 1440): 2.3%
- AR: Bilirubin high (Day 1800): 2.6%
- AR: Bilirubin shift: normal to high (Day 120): 1.0%
- AR: Bilirubin shift: normal to high (Day 360): 0.9%
- AR: Bilirubin shift: normal to high (Day 720): 1.0%
- AR: Bilirubin shift: normal to high (Day 1080): 1.4%
- AR: Bilirubin shift: normal to high (Day 1440): 1.3%
- AR: Bilirubin shift: normal to high (Day 1800): 1.4%
- AR: Calcium high (Day 120): 1.0%
- AR: Calcium high (Day 360): 1.1%
- AR: Calcium high (Day 720): 1.2%
- AR: Calcium low (Day 120): 0.2%
- AR: Calcium low (Day 360): 0.2%
- AR: Calcium low (Day 720): 0.2%
- AR: DBP High (≥100 mmHg): 5.3%
- AR: DBP High and Rose ≥10 mmHg: 4.3%
- AR: DBP Low (≤50 mmHG): 1.0%
- AR: DBP Low and dropped ≥10 mmHg: 0.9%
- AR: DBP dropped ≥10 mmHG: 37.8%
- AR: DBP rose ≥10 mmHg: 36.5%
- AR: High platelets (Day 720): 1.5%
- AR: Low platelets (Day 360): 2.0%
- AR: Low platelets (Day 720): 3.1%
- AR: Low platelets (Day 1080): 3.2%
- AR: Platelet count: PCS Low <100 × 10^3/uL: 0.8%
- AR: SBP High (≥160 mmHg): 18.8%
- AR: SBP High and rose ≥20 mmHg: 11.9%
- AR: SBP Low (≤90 mmHg): 0.8%
- AR: SBP dropped ≥20 mmHg: 24.0%
- AR: SBP low and dropped ≥20 mmHg: 0.6%
- AR: SBP rose ≥20 mmHg: 29.6%
- AR: Urate high (Day 120): 13.4%
- AR: Urate high (Day 360): 13.0%
- AR: Urate high (Day 720): 12.4%
- AR: Urate high (Day 1080): 12.7%
- AR: Urate high (Day 1440): 12.7%
- AR: Urate high (Day 1800): 12.1%
- AR: Urate shift: normal to high (Day 120): 5.5%
- AR: Urate shift: normal to high (Day 360): 6.0%
- AR: Urate shift: normal to high (Day 720): 6.2%
- AR: Urate shift: normal to high (Day 1080): 7.1%
- AR: Urate shift: normal to high (Day 1440): 8.2%
- AR: Urate shift: normal to high (Day 1800): 8.2%
- AR: Urate shift: normal to low (Day 120): 0.1%
- AR: Urate shift: normal to low (Day 360): 0.2%
- AR: Urate shift: normal to low (Day 720): 0.2%
- AR: Urate shift: normal to low (Day 1080): 0.2%
- AR: Urate shift: normal to low (Day 1440): 0.3%
- AR: Uric acid PCS High >7.5 mg/dL (Women): 5.0%
- AR: Uric acid PCS High >8.0 mg/dL (Men): 15.3%
- AR: Uric acid PCS Low <1.9 mg/dL (Women): 0.0%
- AR: Uric acid PCS Low <2.5 mg/dL (Men): 0.4%
- ARR: ALP high (Day 120): −1.5%
- ARR: ALP high (Day 360): −2.0%
- ARR: ALP high (Day 720): −2.4%
- ARR: ALP high (Day 1080): −3.0%
- ARR: ALP high (Day 1440): −2.9%
- ARR: ALP high (Day 1800): −2.7%
- ARR: ALP shift: normal to high (Day 120): −1.3%
- ARR: ALP shift: normal to high (Day 360): −1.8%
- ARR: ALP shift: normal to high (Day 720): −2.6%
- ARR: ALP shift: normal to high (Day 1080): −3.0%
- ARR: ALP shift: normal to high (Day 1440): −2.7%
- ARR: ALP shift: normal to high (Day 1800): −2.6%
- ARR: ALP shift: normal to low (Day 120): 0.4%
- ARR: ALP shift: normal to low (Day 360): 0.3%
- ARR: ALP shift: normal to low (Day 720): 0.4%
- ARR: ALP shift: normal to low (Day 1080): 0.3%
- ARR: ALP shift: normal to low (Day 1440): 0.1%
- ARR: Albumin high (Day 120): 0.8%
- ARR: Albumin high (Day 360): 0.7%
- ARR: Albumin high (Day 720): 0.6%
- ARR: Albumin high (Day 1080): 0.7%
- ARR: Albumin high (Day 1440): 0.8%
- ARR: Albumin shift: normal to high (Day 120): 0.8%
- ARR: Albumin shift: normal to high (Day 720): 0.7%
- ARR: Albumin shift: normal to high (Day 1080): 0.4%
- ARR: Albumin shift: normal to high (Day 1440): 0.7%
- ARR: Bilirubin >1x ULN to 2x ULN: 3.5%
- ARR: Bilirubin >2x ULN to 3x ULN: 0.2%
- ARR: Bilirubin high (Day 120): 2.4%
- ARR: Bilirubin high (Day 360): 2.0%
- ARR: Bilirubin high (Day 720): 2.6%
- ARR: Bilirubin high (Day 1080): 2.0%
- ARR: Bilirubin high (Day 1440): 2.5%
- ARR: Bilirubin high (Day 1800): 2.3%
- ARR: Bilirubin shift: normal to high (Day 120): 1.3%
- ARR: Bilirubin shift: normal to high (Day 360): 1.3%
- ARR: Bilirubin shift: normal to high (Day 720): 1.3%
- ARR: Bilirubin shift: normal to high (Day 1080): 1.0%
- ARR: Bilirubin shift: normal to high (Day 1440): 1.8%
- ARR: Bilirubin shift: normal to high (Day 1800): 1.2%
- ARR: Calcium high (Day 120): −0.2%
- ARR: Calcium high (Day 360): −0.1%
- ARR: Calcium high (Day 720): −0.3%
- ARR: Calcium low (Day 120): 0.1%
- ARR: Calcium low (Day 360): 0.2%
- ARR: Calcium low (Day 720): 0.2%
- ARR: DBP High (≥100 mmHg): 0.6%
- ARR: DBP High and Rose ≥10 mmHg: 0.4%
- ARR: DBP Low (≤50 mmHG): 0.1%
- ARR: DBP Low and dropped ≥10 mmHg: 0.0%
- ARR: DBP dropped ≥10 mmHG: 3.2%
- ARR: DBP rose ≥10 mmHg: −0.6%
- ARR: High platelets (Day 720): 0.6%
- ARR: Low platelets (Day 360): −1.8%
- ARR: Low platelets (Day 720): −0.7%
- ARR: Low platelets (Day 1080): −1.2%
